US5474988A, “5-phenylpyrrolo-1,4-benzoxazine and 5-phenylpyrrolo-1,4-benzothiazine compounds, process and intermediates for their production and pharmaceutical compositions containing them” (Kali-Chemie Pharma GmbH, priority 1993, dated 1995)

Legend:
[1] = system: P.A.F.-induced aggregation of blood platelets; experiment: anti-P.A.F. action in vitro (P.A.F.-induced platelet aggregation); format: cell-based; conditions: Oryctolagus cuniculus, 10^-5 mole/liter, read-out: Anti-P.A.F. activity in vitro, % inhibition of the P.A.F.-induced aggregation of blood platelets from rabbit blood
From the text: 3. Determination of the anti-P.A.F. action in vitro.
P.A.F. (=Platelet Activating Factor=Platelet Aggregation Factor) is a phospholipid mediator which has a multiplicity of actions. The activation of blood platelet aggregation results in the induction of long-lasting bronchoconstrictions and hyperreactivity of the respiratory passages.
In this test, the effect of the test substances on platelet aggregation induced by addition of P.A.F. in a platelet suspension obtained from rabbit blood was investigated according to the method described by Mikashima et al. (Jap. J. Pharmacol. 44 (1987) 387-391).
A suspension of platelets obtained from rabbit blood was used which contains 4×10^9 platelets/ml in a modified Tyrode buffer solution (=Tyrode solution with the addition of 1.3 mM/l of CaCl2 and 2.5 g/l of gelatine) adjusted to pH 7.4. Tyrode solution is an aqueous solution containing, per liter, 136.9 mmole of NaCl, 2.68 mmole of KCl, 2.31 mmole of CaCl2, 1.0 mmole of MgCl2, 11.9 mmole of NaHCO3, 1.45 mmole of NaH2 PO4 and 5.55 mmole of glucose. The platelets were concentrated from 10 ml blood samples of three rabbits (New Zealand hybrids, body weight 3-4 kg) in each case. To accomplish this, the blood samples were treated with ethylenediaminetetraacetic acid and washed according to the method of Artley et al. (Brit. J. Haematol. 19 (1970), 7-17). A platelet-rich plasma was first separated by centrifugation (20 minutes at 400×g). The platelets were separated from the plasma by repeated centrifugation for 15 minutes at 1400×g.After the centrifugation, the blood platelets remaining in the sediment were resuspended in a Tyrode buffer solution (but without calcium). 0.4 mmole of lysine acetylsalicylate was then added, and the blood platelets were sedimented again after 15 minutes. The sediment was resuspended in the aforementioned modified Tyrode buffer solution, and the number of platelets in the suspension obtained was adjusted to the desired content.
A 40×10^-9 molar P.A.F. solution was employed as a reagent. This solution was prepared from a 1.8×10^-3 molar stock solution in chloroform. To do this, a 10 μl sample of the stock solution was evaporated to dryness and dissolved again in 180 μl of the modified Tyrode buffer solution, to which 0.25% of lipid-free bovine serum albumin had been added. 10^-5 molar working solutions were then prepared from this and stored frozen. Samples of these solutions were appropriately diluted for tests.
In order to carry out the test, 50 μl of the blood platelet suspension and 10 μl of a 40×10^-5 molar solution of the compound to be investigated were added to […] of the modified Tyrode buffer solution with stirring (1000 rpm) in an aggregation tube provided with a small magnetic stirrer. This corresponded to a final test substance concentration of 10^-5 mole/l. After a preincubation time of 90 seconds, 10 μl of the P.A.F. preparation were added. For 4-5 minutes, the aggregation occurring in the aggregation tube was measured by means of a computerized aggregometer.
The aggregation occurring in the test tubes containing only the platelet suspension is rated as 0%. The aggregation occurring in the test tubes containing platelet suspension and P.A.F. preparation, in which a P.A.F.-induced increase in platelet aggregation takes place, is rated as 100%. The aggregation still occurring after addition of the test substances is measured, and from this the inhibition of the P.A.F.-inducedincrease in aggregation which takes place is calculated in %.

5-lipoxygenase = experiment: inhibition of 5-lipoxygenase activity in polymorphonuclear rat leucocytes (LTB4 formation); format: cell-based; conditions: 10^-5 mol/l; 22° C.
From the text: 4. In vitro determination of 5-lipoxygenase inhibition. 4a. In vitro determination of inhibition of 5-lipoxygenase activity in polymorphonuclear rat leucocytes. Arachidonic acid contained in cell membranes is released after activiation of the polymorphonuclear leucocytes (=PMN). During the course of this, under the action of the enzyme 5-lipoxygenase (=5-LO) arachidonic acid metabolites are synthesized which can be converted to leucotriene B4 (=LTB4) by LTA4 hydrolase. LTB4 is a principal metabolite of the arachidonic acid metabolism taking place on activation of the enzyme 5-LO by the inflammatory stimulus in the cell membrane. In in vitro systems, this metabolite is secreted from PMNs. […] To accomplish this, the content of LTB4 in a culture medium of rat peritoneal PMNs was determined after stimulation by calcimycin (=calcium-ionophore A23187) such as described by […] et al., Can. J. Physiol. Pharmacol. 67 (1989), 17. A cell suspension containing peritoneal PMNs of male Sprague-Dawley rats (body weight 200 to 250 g) was obtained in a known manner as follows: 6 ml of a solution containing 27.9 g/l of sodium thioglycolate were injected i.p. into the animals in order to induce the PMN invasion due to this inflammatory stimulus. After 22 hours, the animals were sacrificed by means of lethal ether anaesthesia. 20 ml of a Hank's salt solution (=Hank's Balanced Salt Solution=HBSS), but without Ca^++ and Mg^++ ions and with 0.2% by weight of sodium citrate, were then injected into the abdominal cavity. The suspension of accumulated cells was removed from the abdominal cavity and the cells were separated by centrifugation (10 minutes at 400×g). The cells were purified by repeated centrifugation in the presence of Ficoll-Paque®, (=metrizoic acid preparation, […], manufacturer Pharmacia), then washed twice with HBSS containing Ca^++ and Mg^++ ions and resuspended in HBSS containing Ca^ ++ and Mg^++ ions and buffered with 10 mM HEPES (=hydroxyethylpiperazinoethanesulfonic acid). In order to carry out the tests, samples of 0.7 ml of the PMN suspension (=0.5×10^6 cells) in each case were incubated for 15 minutes at 22° C. in plastic tubes containing 10 μM of the test substance in dimethylformamide or, as a control experiment, only containing dimethylformamide. The LTB4 synthesis was initiated in the samples by addition of calcimycin (final concentration 5 μm), and the samples were incubated for 10 minutes at 22° C. Only solvent was added to blank control samples. After 10 minutes, the reaction was terminated by addition of 0.3 ml of cold methanol. The samples were kept for 1 hour at 4° C. and then centrifuged (5 minutes at 10,000×g). The supernatant liquid was investigated to determine its LTB4 content by means of reverse phase high-pressure liquid chromatography (=reverse phase HPLC). […] The LTB4 was identified by comparison with authentic standard solutions eluting at the same time and determined at a wavelength of 270 nm. The LTB4 contents are determined from comparison with calibrated standard solutions, and from this the inhibitory activity of the test substances was calculated in % inhibition of the LTB4 synthesis in comparison with the control samples containing no test substance.

In the case of `COc1ccc(-c2c(C)c3cccc4c3n2CC(CCN2CCN(c3cc(C)ccn3)CC2)O4)cc1` (stereo not drawn) [Example 1, 2,3-dihydro-5-(4-methoxyphenyl)-6-methyl-2-[2-(4-(4-methylpyridin-2-yl)piperazin-1-yl)ethyl]pyrrolo[1,2,3-de]-1,4-benzoxazine], the inhibition at 10 µM [1] is reported as 80%.

`Cc1ccnc(N2CCN(CCC3Cn4c(-c5ccc(O)cc5)c(C)c5cccc(c54)O3)CC2)c1` (stereo not drawn) [Example 2, 2,3-Dihydro-5-(4-hydroxyphenyl)-6-methyl-2-[2-(4-(4-methylpyridin-2-yl)piperazin-1-yl)ethyl]pyrrolo[1,2,3-de]-1,4-benzoxazine] was tested, and the inhibition at 10 µM [1] was 97% and the “In vitro inhibitory activity on LTB4 formation in rat PMNs stimulated by calcium ionophore A23187” value (5-lipoxygenase) was 89%.

Work on `COc1ccc(-c2c(C)c3cccc4c3n2CC(CCC(=O)N2CCN(c3cc(C)ccn3)CC2)O4)cc1` (stereo not drawn) [Example 6, 2,3-Dihydro-5-(4-methoxyphenyl)-6-methyl-2-[3-(4-(4-methylpyridin-2-yl)piperazin-1-yl)-3-oxopropyl]pyrrolo[1,2,3-de]-1,4-benzoxazine] yielded an inhibition at 10 µM [1] of 100%.

`Cc1ccnc(N2CCN(CC3Cn4c(-c5ccc(O)cc5)c(C)c5cccc(c54)O3)CC2)c1` (stereo not drawn) [Example 14] was tested, and the inhibition at 10 µM [1] was 100% and the “In vitro inhibitory activity on LTB4 formation in rat PMNs stimulated by calcium ionophore A23187” value (5-lipoxygenase) was 90%.

In the case of `Cc1c(-c2ccc(O)cc2)n2c3c(cccc13)OC(CCN1CCN(c3ccc(F)cc3)CC1)C2` (stereo not drawn) [Example 24], the “In vitro inhibitory activity on LTB4 formation in rat PMNs stimulated by calcium ionophore A23187” value (5-lipoxygenase) is reported as 73%.

For `Cc1cccnc1N1CCN(C(=O)CCC2Cn3c(-c4ccc(O)cc4)c(C)c4cccc(c43)O2)CC1` (stereo not drawn) [Example 37], the inhibition at 10 µM [1] was 48% and the “In vitro inhibitory activity on LTB4 formation in rat PMNs stimulated by calcium ionophore A23187” value (5-lipoxygenase) was 100%.

With `Cc1ccnc(N2CCN(CCC3Cn4c(-c5cc(C)c(O)c(C)c5)c(C)c5c(Cl)ccc(c54)O3)CC2)c1` (stereo not drawn) [Example 48] the inhibition at 10 µM [1] was 69%.

For `COc1ccc(-c2c(C)c3c(F)ccc4c3n2CC(CCN2CCN(c3cc(C)ccn3)CC2)O4)cc1` (stereo not drawn) [Example 51], the inhibition at 10 µM [1] was 65%.

For `COc1ccc(-c2c(C)c3cccc4c3n2CC(CCN2CCN(c3cc(C)ccn3)CC2)O4)cc1O` (stereo not drawn) [Example 52], the “In vitro inhibitory activity on LTB4 formation in rat PMNs stimulated by calcium ionophore A23187” value (5-lipoxygenase) was 53%.

For `Cc1ccc(N2CCN(CCCC3Cn4c(-c5ccc(O)cc5)c(C)c5cccc(c54)O3)CC2)nc1` (stereo not drawn) [Example 55], the “In vitro inhibitory activity on LTB4 formation in rat PMNs stimulated by calcium ionophore A23187” value (5-lipoxygenase) was 63%.

With `Cc1c(-c2ccc(O)cc2)n2c3c(cccc13)OC(CCCN1CCN(c3ccccn3)CC1)C2` (stereo not drawn) [Example 56] the “In vitro inhibitory activity on LTB4 formation in rat PMNs stimulated by calcium ionophore A23187” value (5-lipoxygenase) was 76%.

In the case of `Cc1cccc(N2CCN(C(=O)CCC3Cn4c(-c5ccc(O)cc5)c(C)c5cccc(c54)O3)CC2)n1` (stereo not drawn) [Example 57], the “In vitro inhibitory activity on LTB4 formation in rat PMNs stimulated by calcium ionophore A23187” value (5-lipoxygenase) is reported as 85%.

With `Cc1cccc(N2CCN(CCCC3Cn4c(-c5ccc(O)cc5)c(C)c5cccc(c54)O3)CC2)n1` (stereo not drawn) [Example 58] the “In vitro inhibitory activity on LTB4 formation in rat PMNs stimulated by calcium ionophore A23187” value (5-lipoxygenase) was 54%.

`Cc1ccnc(N2CCN(CCCCC3Cn4c(-c5cc(C)c(O)c(C)c5)c(C)c5cccc(c54)S3)CC2)c1` (stereo not drawn) [Example 63] gave an inhibition at 10 µM [1] of 80%.

In the case of `COc1ccc2c3c1c(C)c(-c1ccc(O)cc1)n3CC(CCC(=O)N1CCN(c3cc(C)ccn3)CC1)O2` (stereo not drawn) [Example 68], the inhibition at 10 µM [1] is reported as 96% and the “In vitro inhibitory activity on LTB4 formation in rat PMNs stimulated by calcium ionophore A23187” value (5-lipoxygenase) is reported as 90%.

`Cc1ccnc(N2CCN(CCC3Cn4c(-c5ccc(O)cc5)c(C)c5c(C)cc(C)c(c54)O3)CC2)c1` (stereo not drawn) [Example 70] was tested, and the inhibition at 10 µM [1] was 93% and the “In vitro inhibitory activity on LTB4 formation in rat PMNs stimulated by calcium ionophore A23187” value (5-lipoxygenase) was 68%.
